Measured values as given in patent US5278161A, “Amino acid derivatives useful as renin inhibitors” (Hoffmann-La Roche Inc., priority 1990, dated 1994).

Molecular target: T1, human renin (Homo sapiens, UniProt P00797)
T1 sequence (P00797 67-406): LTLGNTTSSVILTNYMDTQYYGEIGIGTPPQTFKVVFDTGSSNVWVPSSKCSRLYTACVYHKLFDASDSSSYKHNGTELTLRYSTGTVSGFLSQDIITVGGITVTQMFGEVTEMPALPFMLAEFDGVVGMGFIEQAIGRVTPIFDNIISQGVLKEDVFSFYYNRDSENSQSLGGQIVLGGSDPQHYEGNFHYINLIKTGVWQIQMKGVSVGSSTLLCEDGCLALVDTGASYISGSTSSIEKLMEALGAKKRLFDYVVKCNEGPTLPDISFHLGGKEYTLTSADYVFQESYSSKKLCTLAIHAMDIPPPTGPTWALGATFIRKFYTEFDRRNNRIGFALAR
Assay: In vitro test with pure human renin (inhibition of angiotensin I production from human tetradecapeptide renin substrate, RIA)
Assay type: biochemical
Settings: pH 7.4 buffer, hTD substrate, three hours at 37° C., angiotensin I by RIA
Description: IN VITRO TEST WITH PURE HUMAN RENIN
The test is carried out in Eppendorf test tubes. The incubation mixture consists of (1) 100 μl of human renin in buffer A (0.1M sodium phosphate solution, pH 7.4, containing 0.1% bovine serum albumin, 0.1% sodium azide and 1 mM ethylenediaminetetraacetic acid), sufficient for a renin activity of 2-3 ng of angiotensin I/ml/hr.; (2) 145 μl of buffer A; (3) 30 μl of 10 μM human tetradecapeptide renin substrate (hTD) in 10 mM hydrochloric acid; (4) 15 μl of dimethyl sulphoxide with or without inhibitor and (5) 10 μl of a 0.03 molar solution of hydroxyquinoline sulphate in water.
The samples are incubated for three hours at 37° C. or 4° C. in triplicate. 2×100 μl samples per experimental test tube are used in order to measure the production of angiotensin I via RIA (standard radioimmunoassay; clinical assay solid phase kit). Cross reactivities of the antibody used in the RIA are: angiotensin I 100%; angiotensin II 0.0013%; hTD (angiotensin I-Val-Ile-His-Ser-OH) 0.09%. The production of angiotensin I is determined by the difference between the experiment at 37° C. and that at 4° C.
The following controls are carried out:
(a) Incubation of hTD samples without renin and without inhibitor at 37° C. and 4° C. The difference between these two values gives the base value of the angiotensin I production.
(b) Incubation of hTD samples with renin, but without inhibitor at 37° C. and 4° C. The difference between these values gives the maximal value of angiotensin I production.
In each sample the base value of the angiotensin I production is subtracted from the angiotensin I production which is determined. The difference between the maximal value and the base value gives the value of the maximal substrate hydrolysis (=100%) by renin.
The results are given as IC50 values which denote that concentration of the inhibitor at which the enzymatic activity is inhibited by 50%. The IC50 values are determined from a linear regression curve from a logit-log plot.

Compound | IC50
CCCc1nc(-c2cccnc2)cn2c(C(C(=O)N[C@@H](CC3CCCCC3)[C@@H](O)[C@@H](O)C3CC3)c3cccnc3)nnc12 (single isomer, unassigned) [A, (R or S)-N-[(1S,2R,3S)-1-(Cyclohexylmethyl)-3-cyclopropyl-2,3-dihydroxypropyl]-8-propyl-α,6-bis(3-pyridyl)-s-triazolo[4,3-a]pyrazine-3-acetamide] | 61 nM
CC(C)c1nc(-c2cccnc2)cn2c(C(Cc3c[nH]cn3)C(=O)N[C@@H](CC3CCCCC3)[C@@H](O)[C@@H](O)C3CC3)nnc12 (single isomer, unassigned) [B, (R or S)-N-[(1S,2R,3S)-1-(cyclohexylmethyl)-3-cyclopropyl-2,3-dihydroxypropyl]-8-isopropyl-α-(imidazol-4-ylmethyl)-6-(3-pyridyl)-s-triazolo[4,3-a]pyrazine-3-acetamide] | 43 nM
CC(C)Cc1nc(-c2cccnc2)cn2c(C(Cc3cnc[nH]3)C(=O)N[C@@H](CC3CCCCC3)[C@@H](O)[C@@H](O)C3CC3)nnc12 (single isomer, unassigned) [C] | 42 nM

Continued, values first:

IC50 | Compound
57 nM | CCCc1nc(-c2cccnc2)cn2c(C(Cc3cccnc3)C(=O)N[C@@H](CC3CCCCC3)[C@@H](O)[C@@H](O)CC(C)C)nnc12 (single isomer, unassigned) [D, (R or S)-N-[(1S,2R,3S)-1-(cyclohexylmethyl)-2,3-dihydroxy-5-methylhexyl]-8-propyl-6-(3-pyridyl)-α-(3-pyridylmethyl)-s-triazolo[4,3-a]pyrazine-3-acetamide]
48 nM | CCC(C)c1nc(-c2cccnc2)cn2c(C(Cc3cccnc3)C(=O)N[C@@H](CC3CCCCC3)[C@@H](O)[C@@H](O)C3CC3)nnc12 (single isomer, unassigned) [E, (S or R)-N-[(1S,2R,3S)-1-(cyclohexylmethyl)-3-cyclopropyl-2,3-dihydroxypropyl]-8-[(RS)-1-methylpropyl]-α-(3-pyridylmethyl)-6-(3-pyridyl)-s-triazolo[4,3-a]pyrazine-3-acetamide]
11 nM | CCC(C)c1nc(-c2cccnc2)cn2c(C(=O)N[C@@H](CC3CCCCC3)[C@@H](O)[C@@H](O)C3CC3)nnc12 (mixture of isomers) [F, N-[(1S,2R,3S)-1-(cyclohexylmethyl)-3-cyclopropyl-2,3-dihydroxypropyl]-8-[(RS)-1-methylpropyl]-6-(3-pyridyl)-s-triazolo[4,3-a]pyrazine-3-carboxamide]
